Measurements: patent US20240180900A1, “COMPOUNDS AND METHODS FOR THE TARGETED DEGRADATION OF ANDROGEN RECEPTOR” (Arvinas Operations, Inc., priority 2022, published 2024)

Assay: Phase 1/2 study in mCRPC participants: safety
[1] = all-causality TEAEs, Phase 1, N = 34
[2] = all-causality TEAEs, Phase 2, N = 13

## COc1cc(O[C@H]2C(C)(C)[C@H](NC(=O)c3ccc(N4CCC(CN5CCN(c6ccc(C(=O)N[C@H]7CCC(=O)NC7=O)c(F)c6)CC5)CC4)cc3)C2(C)C)ccc1C#N [Compound A, 4-(4-((1-(4-(((1R,3R)-3-(4-cyano-3-methoxyphenoxy)-2,2,4,4-tetramethylcyclobutyl)carbamoyl)phenyl)piperidin-4-yl)methyl)piperazin-1-yl)-N—((S)-2,6-dioxopiperidin-3-yl)-2-fluorobenzamide]
[1]
  Fatigue: Grade 5: 0 participants
  Gastrointestinal disorders: Any Grade: 15 participants
  Gastrointestinal disorders: Grade 3: 2 participants
  Gastrointestinal disorders: Grade 4: 0 participants
  Gastrointestinal disorders: Grade 5: 0 participants
  General disorders and administration site conditions: Any Grade: 16 participants
  General disorders and administration site conditions: Grade 3: 1 participants
  General disorders and administration site conditions: Grade 4: 0 participants
  General disorders and administration site conditions: Grade 5: 0 participants
  Hyponatraemia: Any Grade: 4 participants
  Hyponatraemia: Grade 3: 0 participants
  Hyponatraemia: Grade 4: 0 participants
  Hyponatraemia: Grade 5: 0 participants
  Hypophosphataemia: Any Grade: 4 participants
  Hypophosphataemia: Grade 3: 0 participants
  Hypophosphataemia: Grade 4: 0 participants
  Hypophosphataemia: Grade 5: 0 participants
  Insomnia: Any Grade: 5 participants
  Insomnia: Grade 3: 0 participants
  Insomnia: Grade 4: 0 participants
  Insomnia: Grade 5: 0 participants
  Investigations: Any Grade: 19 participants
  Investigations: Grade 3: 1 participants
  Investigations: Grade 4: 1 participants
  Investigations: Grade 5: 0 participants
  Lymphocyte count decreased: Any Grade: 4 participants
  Lymphocyte count decreased: Grade 3: 0 participants
  Lymphocyte count decreased: Grade 4: 1 participants
  Lymphocyte count decreased: Grade 5: 0 participants
  Metabolism and nutrition disorders: Any Grade: 15 participants
  Metabolism and nutrition disorders: Grade 3: 1 participants
  Metabolism and nutrition disorders: Grade 4: 0 participants
  Metabolism and nutrition disorders: Grade 5: 0 participants
  Nausea: Any Grade: 7 participants
  Nausea: Grade 3: 0 participants
  Nausea: Grade 4: 0 participants
  Nausea: Grade 5: 0 participants
  Neutrophil count decreased: Any Grade: 4 participants
  Neutrophil count decreased: Grade 3: 0 participants
  Neutrophil count decreased: Grade 4: 0 participants
  Neutrophil count decreased: Grade 5: 0 participants
  Participants with any TEAEs: Any Grade: 33 participants
  Participants with any TEAEs: Grade 3: 10 participants
  Participants with any TEAEs: Grade 4: 2 participants
  Participants with any TEAEs: Grade 5: 1 (2.9) participants
  Psychiatric disorders: Any Grade: 7 participants
  Psychiatric disorders: Grade 3: 0 participants
  Psychiatric disorders: Grade 4: 0 participants
  Psychiatric disorders: Grade 5: 0 participants
  Rash maculo-papular: Any Grade: 4 participants
  Rash maculo-papular: Grade 3: 0 participants
  Rash maculo-papular: Grade 4: 0 participants
  Rash maculo-papular: Grade 5: 0 participants
  Respiratory, thoracic and mediastinal disorders: Any Grade: 6 participants
  Respiratory, thoracic and mediastinal disorders: Grade 3: 2 participants
  Respiratory, thoracic and mediastinal disorders: Grade 4: 0 participants
  Respiratory, thoracic and mediastinal disorders: Grade 5: 0 participants
  Skin and subcutaneous tissue disorders: Any Grade: 10 participants
  Skin and subcutaneous tissue disorders: Grade 3: 0 participants
  Skin and subcutaneous tissue disorders: Grade 4: 0 participants
  Skin and subcutaneous tissue disorders: Grade 5: 0 participants
[2]
  Abdominal pain: Any Grade: 2 participants
  Abdominal pain: Grade 3: 1 participants
  Abdominal pain: Grade 4: 0 participants
  Abdominal pain: Grade 5: 0 participants
  Alopecia: Any Grade: 2 participants
  Alopecia: Grade 3: 0 participants
  Alopecia: Grade 4: 0 participants
  Alopecia: Grade 5: 0 participants
  Anaemia: Any Grade: 4 participants
  Anaemia: Grade 3: 0 participants
  Anaemia: Grade 4: 0 participants
  Anaemia: Grade 5: 0 participants
  Blood alkaline phosphatase increased: Any Grade: 3 participants
  Blood alkaline phosphatase increased: Grade 3: 0 participants
  Blood alkaline phosphatase increased: Grade 4: 0 participants
  Blood alkaline phosphatase increased: Grade 5: 0 participants
  Blood and lymphatic system disorders: Any Grade: 4 participants
  Blood and lymphatic system disorders: Grade 3: 0 participants
  Blood and lymphatic system disorders: Grade 4: 0 participants
  Blood and lymphatic system disorders: Grade 5: 0 participants
  Diarrhoea: Any Grade: 3 participants
  Diarrhoea: Grade 3: 0 participants
  Diarrhoea: Grade 4: 0 participants
  Diarrhoea: Grade 5: 0 participants
  Dysgeusia: Any Grade: 3 participants
  Dysgeusia: Grade 3: 0 participants
  Dysgeusia: Grade 4: 0 participants
  Dysgeusia: Grade 5: 0 participants
  Fatigue: Any Grade: 2 participants
  Fatigue: Grade 3: 0 participants
  Fatigue: Grade 4: 0 participants
  Fatigue: Grade 5: 0 participants
  Gastrointestinal disorders: Any Grade: 7 participants
  Gastrointestinal disorders: Grade 3: 1 participants
  Gastrointestinal disorders: Grade 4: 0 participants
  Gastrointestinal disorders: Grade 5: 0 participants
  General disorders and administration site conditions: Any Grade: 2 participants
  General disorders and administration site conditions: Grade 3: 0 participants
  General disorders and administration site conditions: Grade 4: 0 participants
  General disorders and administration site conditions: Grade 5: 0 participants
  Haematuria: Any Grade: 3 participants
  Haematuria: Grade 3: 0 participants
  Haematuria: Grade 4: 0 participants
  Haematuria: Grade 5: 0 participants
  Hypertension: Any Grade: 2 participants
  Hypertension: Grade 3: 1 participants
  Hypertension: Grade 4: 0 participants
  Hypertension: Grade 5: 0 participants
  Investigations: Any Grade: 5 participants
  Investigations: Grade 3: 0 participants
  Investigations: Grade 4: 0 participants
  Investigations: Grade 5: 0 participants
  Nausea: Any Grade: 2 participants
  Nausea: Grade 3: 0 participants
  Nausea: Grade 4: 0 participants
  Nausea: Grade 5: 0 participants
  Nervous system disorders: Any Grade: 3 participants
  Nervous system disorders: Grade 3: 0 participants
  Nervous system disorders: Grade 4: 0 participants
  Nervous system disorders: Grade 5: 0 participants
  Participants with any TEAEs: Any Grade: 11 participants
  Participants with any TEAEs: Grade 3: 2 participants
  Participants with any TEAEs: Grade 4: 0 participants
  Participants with any TEAEs: Grade 5: 0 participants
  Proteinuria: Any Grade: 2 participants
  Proteinuria: Grade 3: 0 participants
  Proteinuria: Grade 4: 0 participants
  Proteinuria: Grade 5: 0 participants
  Renal and urinary disorders: Any Grade: 6 participants
  Renal and urinary disorders: Grade 3: 0 participants
  Renal and urinary disorders: Grade 4: 0 participants
  Renal and urinary disorders: Grade 5: 0 participants
  Skin and subcutaneous tissue disorders: Any Grade: 2 participants
  Skin and subcutaneous tissue disorders: Grade 3: 0 participants
  Skin and subcutaneous tissue disorders: Grade 4: 0 participants
  Skin and subcutaneous tissue disorders: Grade 5: 0 participants
  Vascular disorders: Any Grade: 2 participants
  Vascular disorders: Grade 3: 1 participants
  Vascular disorders: Grade 4: 0 participants
  Vascular disorders: Grade 5: 0 participants
  Vomiting: Any Grade: 2 participants
  Vomiting: Grade 3: 0 participants
  Vomiting: Grade 4: 0 participants
  Vomiting: Grade 5: 0 participants
Study start until data cut-off
  deaths considered related to Compound A: No deaths were considered related to Compound A
  deaths reported: Five
